The structures appear in SMILES notation. Numbered stars: 1 amine (or outer) side, 2 acyl side, 3 side chain; on linkers, the order of the positions; unused ones are H or OH. Bridge positions count the residues as written; N and C are the ends. Square brackets hold non-standard residues; d marks the D form. Peptide text beside a SMILES is read from it. * marks the point of attachment. TtdsdLys(DOTA)NH2 = NC(=O)[C@@H](CCCCNC(=O)CN1CCN(CC(=O)O)CCN(CC(=O)O)CCN(CC(=O)O)CC1)NC(=O)CCC(=O)NCCCOCCOCCOCCCN*; DOTA = O=C(O)CN1CCN(CC(=O)O)CCN(CC(=O)*)CCN(CC(=O)O)CC1; Phe(4-Cl) = N[C@@H](Cc1ccc(Cl)cc1)C(=O)O; Thz(5,5-Me2) = CC1(C)SCN[C@@H]1C(=O)O; Arg(Me) = CNC(=N)NCCC[C@H](N)C(=O)O; X1 = O=C(CC1CCN([*:1])CC1)[*:2]; Lys(Me) = CNCCCC[C@H](N)C(=O)O; Tle = CC(C)(C)[C@H](N)C(=O)O; Propanoyl(3-OH) = O=C(CCO)*; Nle = CCCC[C@H](N)C(=O)O; Aib = CC(C)(N)C(=O)O; βAla = NCCC(=O)O

Test [1] has as its target T1, PSMA-expressing C4-2 cells (Homo sapiens, UniProt Q04609).
T1 construct: PSMA-expressing C4-2 cells (ATCC, Cat. No. CRL-3314) were cultured in RPMI-1640; host or cells: C4-2 cells
The experiment in a line: FACS binding assay (competition with 50 nM PSM-0183). The conditions noted are these: pIC50 category of FACS binding, C4-2 cells; read-out: pIC50 [C4-2] CAT (converted). A digest of the protocol: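 C4-2 cells were incubated 1 h at 4 °C with 50 nM AF488-labelled peptide PSM-0183 plus increasing test compound concentrations, then washed twice in ice-cold buffer. Median fluorescence in the AF488 channel was read by flow cytometry. IC50/pIC50 was derived by 4PL fitting of MFI versus concentration.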

Test [2] concerns the target T2, Fc-fusion protein of human PSMA (hPSMA-Fc) (Homo sapiens, UniProt Q04609).
T2 construct: purchased Acro Biosystems PSA-H5264
The experiment in a line: Surface plasmon resonance assay (Biacore T200, single cycle kinetic). Type of test: binding. The conditions noted are these: pKD category for PSMA SPR activity assay, hPSMA-Fc, 25° C.; read-out: pKD CAT (converted). A digest of the protocol:
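hPSMA-Fc was captured (~1000 RU) on an Fc-binding-peptide CM5 chip, and compounds were run in single cycle kinetic mode at 25° C in HBST with 0.1% DMSO. Double-blank-corrected sensorgrams were fitted to a 1:1 Langmuir model to give KD, reported as pKD.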
A general note: Surface plasmon resonance follows binding to a sensor surface in real time, without labels.

T1 sequence (Q04609 whole entry): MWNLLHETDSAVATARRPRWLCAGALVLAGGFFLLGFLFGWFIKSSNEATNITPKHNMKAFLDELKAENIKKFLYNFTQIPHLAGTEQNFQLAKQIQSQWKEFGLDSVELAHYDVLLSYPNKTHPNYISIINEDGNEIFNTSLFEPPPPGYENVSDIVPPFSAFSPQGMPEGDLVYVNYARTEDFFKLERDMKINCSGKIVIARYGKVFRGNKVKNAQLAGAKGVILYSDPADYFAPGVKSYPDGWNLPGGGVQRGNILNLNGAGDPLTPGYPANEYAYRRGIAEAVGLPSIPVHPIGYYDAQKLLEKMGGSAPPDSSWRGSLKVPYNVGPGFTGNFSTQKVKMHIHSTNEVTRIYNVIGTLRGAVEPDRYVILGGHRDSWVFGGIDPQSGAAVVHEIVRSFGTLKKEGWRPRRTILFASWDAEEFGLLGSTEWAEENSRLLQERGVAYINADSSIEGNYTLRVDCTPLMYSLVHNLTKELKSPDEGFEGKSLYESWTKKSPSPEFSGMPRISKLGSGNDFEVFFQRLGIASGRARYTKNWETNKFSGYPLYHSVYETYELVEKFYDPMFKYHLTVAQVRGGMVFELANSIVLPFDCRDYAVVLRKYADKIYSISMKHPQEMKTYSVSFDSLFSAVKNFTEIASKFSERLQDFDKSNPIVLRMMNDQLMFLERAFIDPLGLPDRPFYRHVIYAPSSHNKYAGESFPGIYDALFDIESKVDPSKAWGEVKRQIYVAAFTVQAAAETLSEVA
T2 sequence (Q04609 44-750 limits assumed): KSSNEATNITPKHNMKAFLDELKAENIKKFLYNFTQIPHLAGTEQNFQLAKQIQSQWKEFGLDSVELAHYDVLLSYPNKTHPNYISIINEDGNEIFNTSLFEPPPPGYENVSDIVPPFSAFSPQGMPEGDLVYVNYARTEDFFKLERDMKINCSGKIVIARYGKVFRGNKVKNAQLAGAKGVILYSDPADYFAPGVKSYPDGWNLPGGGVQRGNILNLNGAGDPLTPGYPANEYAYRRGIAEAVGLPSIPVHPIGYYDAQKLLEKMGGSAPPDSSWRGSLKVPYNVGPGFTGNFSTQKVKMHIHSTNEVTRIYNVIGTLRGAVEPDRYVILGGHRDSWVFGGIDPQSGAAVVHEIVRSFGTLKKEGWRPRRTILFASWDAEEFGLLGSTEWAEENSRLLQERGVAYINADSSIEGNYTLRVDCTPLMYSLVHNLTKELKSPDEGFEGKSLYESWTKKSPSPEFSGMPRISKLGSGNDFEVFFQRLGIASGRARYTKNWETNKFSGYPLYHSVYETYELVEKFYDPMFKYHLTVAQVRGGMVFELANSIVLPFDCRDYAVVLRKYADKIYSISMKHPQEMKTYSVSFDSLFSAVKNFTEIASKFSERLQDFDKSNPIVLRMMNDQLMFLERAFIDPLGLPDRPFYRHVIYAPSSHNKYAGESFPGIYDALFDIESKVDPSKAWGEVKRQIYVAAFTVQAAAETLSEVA

For the molecule `CCCC[C@H](NC(=O)[C@@H]1CSSC[C@H](NC(=O)[C@H](Cc2ccccc2)NC(=O)[C@H](C)NC(=O)[C@H](NC(C)=O)[C@H](C)O)C(=O)N[C@@H](CCCCN)C(=O)N[C@@H](CCCNC(=N)N)C(=O)N[C@@H](C)C(=O)N[C@@H](CC(N)=O)C(=O)N1)C(=O)N[C@H](C(=O)N[C@@H](CC(=O)O)C(N)=O)[C@@H](C)O` [PSM-0525, Ac-thr-Als-Phe-[Cys-Lys-Arg-Als-Asn-Cys]-Nle-Thr-Asp-NH2], in test [1], the IC50 is over 3.16 µM. The Kd in test [2] is over 0.501 µM.
For `C=C1N[C@@H](CCCCN)C(=O)N[C@@H](CCCNC(=N)N)C(=O)NC(C)(C)C(=O)N[C@@H](CC(N)=O)C(=O)N[C@H](C(=O)N[C@H](C(=O)N[C@H](C(=O)NCCOCCOCC(=O)N[C@H](CCCCNC(=O)CN2CCN(CC(=O)O)CCN(CC(=O)O)CCN(CC(=O)O)CC2)C(N)=O)[C@@H](C)O)C(C)(C)C)CSSC[C@@H]1NC(=O)[C@H](Cc1ccccc1)NC(=O)C(C)(C)NC(=O)[C@@H](NC(C)=O)[C@@H](C)O` [PSM-0529, Ac-Thr-Aib-Phe-[Cys-Lys-Arg-Aib-Asn-Cys]-Tle-Thr-O2Oc-lys(DOTA)-NH2], in that order: under 0.2 µM and under 0.0126 µM.
For `C[C@@H](O)[C@H](NC(=O)[C@@H](NC(=O)[C@@H]1CSSC[C@H](NC(=O)[C@H](Cc2ccccc2)NC(=O)C(C)(C)NC(=O)CCO)C(=O)N[C@@H](CCCCN)C(=O)N[C@@H](CCCNC(=N)N)C(=O)NC(C)(C)C(=O)N[C@@H](CC(N)=O)C(=O)N1)C(C)(C)C)C(N)=O` [PSM-0530, HPA-Aib-Phe-[Cys-Lys-Arg-Aib-Asn-Cys]-Tle-Thr-NH2] ({Propanoyl(3-OH)}-[Aib]FCKR[Aib]NC[Tle]T-NH2; disulfide 3-8), in that order: under 0.2 µM and under 0.0126 µM.
Turning to `CC(=O)N[C@H](C(=O)NC(C)(C)C(=O)N[C@@H](Cc1ccccc1)C(=O)N[C@H]1CSSC[C@@H](C(=O)N[C@H](C(=O)N[C@H](C(=O)N[C@@H](CC(=O)O)C(N)=O)[C@@H](C)O)C(C)(C)C)NC(=O)[C@H](CC(N)=O)NC(=O)[C@H]2N(CSC2(C)C)C(=O)[C@H](CCCNC(=N)N)NC(=O)[C@H](CCCCN)NC1=O)[C@@H](C)O` [PSM-0532, Ac-Thr-Aib-Phe-[Cys-Lys-Arg-Dtc-Asn-Cys]-Tle-Thr-Asp-NH2] (Ac-T[Aib]FCKR[Thz(5,5-Me2)]NC[Tle]TD-NH2; disulfide 4-9), the IC50 in test [1] was under 0.2 µM. The Kd in test [2] is under 0.0126 µM.
On to `CCCC[C@H](NC(=O)[C@@H]1CSSC[C@H](NC(=O)[C@H](Cc2ccccc2)NC(=O)[C@H](C)NC(=O)[C@@H](NC(C)=O)[C@@H](C)O)C(=O)N[C@@H](CCCCN)C(=O)N[C@@H](CCCNC(=N)N)C(=O)N[C@@H](C)C(=O)N[C@@H](CC(N)=O)C(=O)N1)C(=O)N[C@H](C(=O)N[C@@H](CC(=O)O)C(=O)NCCCOCCOCCOCCCNC(=O)CCC(=O)N[C@H](CCCCNC(=O)CN1CCN(CC(=O)O)CCN(CC(=O)O)CCN(CC(=O)O)CC1)C(N)=O)[C@@H](C)O` [PSM-0533, Ac-Thr-Ala-Phe-[Cys-Lys-Arg-Ala-Asn-Cys]-Nle-Thr-Asp-Ttds-lys(DOTA)-NH2] (Ac-TAFCKRANC[Nle]TD-{TtdsdLys(DOTA)NH2}; disulfide 4-9), for which, in test [1], the IC50 was 0.2 to 1.26 µM. For the same molecule, the Kd in test [2] was 0.0126 to 0.126 µM.
In the case of `CC(=O)N[C@H](C(=O)NC(C)(C)C(=O)N[C@@H](Cc1ccccc1)C(=O)N[C@H]1CSSC[C@@H](C(=O)N[C@H](C(=O)N[C@H](C(=O)N[C@@H](CC(=O)O)C(N)=O)[C@@H](C)O)C(C)(C)C)NC(=O)[C@H](CC(N)=O)NC(=O)[C@H](C)NC(=O)[C@H](CCCNC(=N)N)NC(=O)[C@@H](CCCCN)NC1=O)[C@@H](C)O` [PSM-0535, Ac-Thr-Aib-Phe-[Cys-lys-Arg-Ala-Asn-Cys]-Tle-Thr-Asp-NH2] (Ac-T[Aib]FC[dK]RANC[Tle]TD-NH2; disulfide 4-9), the IC50 in test [1] is 0.2 to 1.26 µM. Moreover, the Kd in test [2] was under 0.0126 µM.
For `CCCC[C@H](NC(=O)[C@@H]1CSSC[C@H](NC(=O)[C@H](Cc2ccccc2)NC(=O)[C@@H](C)NC(=O)[C@@H](NC(C)=O)[C@@H](C)O)C(=O)N[C@@H](CCCCN)C(=O)N[C@@H](CCCNC(=N)N)C(=O)N[C@@H](C)C(=O)N[C@@H](CC(N)=O)C(=O)N1)C(=O)N[C@H](C(=O)N[C@@H](CC(=O)O)C(N)=O)[C@@H](C)O` [PSM-0537, Ac-Thr-ala-Phe-[Cys-Lys-Arg-Ala-Asn-Cys]-Nlc-Thr-Asp-NH2], in that order: 1.26 to 3.16 µM and over 0.501 µM.
Taken in the same sequence, the figures for `CNCCCC[C@@H]1NC(=O)[C@@H](NC(=O)[C@H](Cc2ccc(Cl)cc2)NC(=O)C(C)(C)NC(=O)[C@@H](NC(=O)CC2CCN(C(=O)CN3CCN(CC(=O)O)CCN(CC(=O)O)CCN(CC(=O)O)CC3)CC2)C(C)(C)C)CSSC[C@@H](C(=O)N[C@H](C(=O)N[C@H](C(N)=O)[C@@H](C)O)C(C)(C)C)NC(=O)[C@H](CC(N)=O)NC(=O)C(C)(C)NC(=O)[C@H](CCCNC(=N)NC)NC1=O` [PSM-0538, DOTA-Cmp-Tle-Aib-Pcf-[Cys-Lys (Mc)-Arg (Mc)-Aib-Asn-Cys]-Tle-Thr-NH2] ({DOTA}-[X1][Tle][Aib][Phe(4-Cl)]C[Lys(Me)][Arg(Me)][Aib]NC[Tle]T-NH2; disulfide 5-10) were 0.2 to 1.26 µM and 0.126 to 0.501 µM.
In the case of `C[C@@H](O)[C@H](NC(=O)CN1CCN(CC(=O)O)CCN(CC(=O)O)CCN(CC(=O)O)CC1)C(=O)NC(C)(C)C(=O)N[C@@H](Cc1ccccc1)C(=O)N[C@H]1CSSC[C@@H](C(=O)N[C@H](C(=O)NCCC(N)=O)C(C)(C)C)NC(=O)[C@H](CC(N)=O)NC(=O)C(C)(C)NC(=O)[C@H](CCCNC(=N)N)NC(=O)[C@H](CCCCN)NC1=O` [PSM-0539, DOTA-Thr-Aib-Phe-[Cys-Lys-Arg-Aib-Asn-Cys]-Tle-Bal-NH2] ({DOTA}-T[Aib]FCKR[Aib]NC[Tle][βAla]-NH2; disulfide 4-9), the IC50 in test [1] is under 0.2 µM. The Kd in test [2] is 0.0126 to 0.126 µM.
With `CC(=O)N[C@H](C(=O)NC(C)(C)C(=O)N[C@@H](Cc1ccccc1)C(=O)N[C@H]1CSSC[C@@H](C(=O)N[C@H](C(=O)N[C@@H](CCC(N)=O)C(N)=O)C(C)(C)C)NC(=O)[C@H](CC(N)=O)NC(=O)C(C)(C)NC(=O)[C@H](CCCNC(=N)N)NC(=O)[C@H](CCCCN)NC1=O)[C@@H](C)O` [PSM-0540, Ac-Thr-Aib-Phe-[Cys-Lys-Arg-Aib-Asn-Cys]-Tle-Gln-NH2] (Ac-T[Aib]FCKR[Aib]NC[Tle]Q-NH2; disulfide 4-9), in test [1], the IC50 was under 0.2 µM. Further, the Kd in test [2] is under 0.0126 µM.
Take `CC(=O)N[C@H](C(=O)NC(C)(C)C(=O)N[C@@H](Cc1ccccc1)C(=O)N[C@H]1CSSC[C@@H](C(=O)N[C@H](C(=O)N[C@H](C(N)=O)[C@@H](C)O)C(C)(C)C)NC(=O)[C@H](Cc2ccccc2)NC(=O)C(C)(C)NC(=O)[C@H](CCCNC(=N)N)NC(=O)[C@H](CCCCN)NC1=O)[C@@H](C)O` [PSM-0541, Ac-Thr-Aib-Phe-[Cys-Lys-Arg-Aib-Phe-Cys]-Tle-NH2] (Ac-T[Aib]FCKR[Aib]FC[Tle]T-NH2; disulfide 4-9): in test [1], the IC50 is under 0.2 µM. Moreover, the Kd in test [2] is under 0.0126 µM.

The values are drawn from patent US20260083865A1, “PROSTATE SPECIFIC MEMBRANE ANTIGEN (PSMA) LIGANDS AND USE THEREOF” (priority 2022, published 2026).
